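1) Cells in 96-well plates. 2) Compound, 48 h, 5 concentrations. 3) Linear interpolation between surrounding doses. 4) Unreached endpoint = highest concentration. Abbreviation: GI50, concentration required for 50% inhibition of growth.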 Activity calls are given as the source filed them. Cut-off read from the data, not from the text of the source: active = GI50 up to about 1.1 µM and inactive = higher.
Tests used:
Assay in all cases: NCI anticancer screen, dose series, 48 h
[1] = tested on: 786-0
[2] = tested on: A549
[3] = tested on: ACHN
[4] = tested on: CAKI-1
[5] = tested on: CCRF-CEM
[6] = tested on: COLO 205
[7] = tested on: DLD-1
[8] = tested on: DMS-114
[9] = tested on: EKVX
[10] = tested on: HCC 2998
[11] = tested on: HCT-116
[12] = tested on: HCT-15
[13] = tested on: HL-60
[14] = tested on: HOP-62
[15] = tested on: HOP-92
[16] = tested on: HT-29
[17] = tested on: IGROV-1
[18] = tested on: K562
[19] = tested on: KM-20L2
[20] = tested on: KM12
[21] = tested on: LOX IMVI
[22] = tested on: LXFL 529
[23] = tested on: M14
[24] = tested on: M19-MEL
[25] = tested on: MOLT-4
[26] = tested on: Malme-3M
[27] = tested on: NCI-H226
[28] = tested on: NCI-H23
[29] = tested on: NCI-H522
[30] = tested on: OVCAR-3
[31] = tested on: OVCAR-4
[32] = tested on: OVCAR-5
[33] = tested on: OVCAR-8
[34] = tested on: RPMI-8226
[35] = tested on: SF-268
[36] = tested on: SF-295
[37] = tested on: SF-539
[38] = tested on: SK-MEL-28
[39] = tested on: SK-MEL-2
[40] = tested on: SK-MEL-5
[41] = tested on: SK-OV-3
[42] = tested on: SN12C
[43] = tested on: SNB-19
[44] = tested on: SNB-75
[45] = tested on: SNB-78
[46] = tested on: SR
[47] = tested on: SW-620
[48] = tested on: TK-10
[49] = tested on: U-251
[50] = tested on: UACC-257
[51] = tested on: UACC-62
[52] = tested on: UO-31
[53] = tested on: XF498
[54] = tested on: A498
[55] = tested on: DMS-273
[56] = tested on: HOP-18
[57] = tested on: NCI-H460
[58] = tested on: RXF 393
[59] = tested on: BT-549
[60] = tested on: DU-145
[61] = tested on: NCI/ADR-RES
[62] = tested on: PC-3

For COc1cc(Cc2cc(OC)c(OC)c(OC)c2)ccc1O, the GI50 [1] was 29.7 µM (inactive), the GI50 [2] was 8.59 µM (inactive) and the GI50 [3] was 40.9 µM (inactive). For the same compound, the GI50 [4] was 62.1 µM (inactive), the GI50 [5] was 6.32 µM (inactive) and the GI50 [6] was 77.8 µM (inactive). For the same compound, the GI50 [7] was 6.11 µM (inactive), the GI50 [8] was 4.63 µM (inactive) and the GI50 [9] was 27 µM (inactive). The GI50 [10] was 27 µM (inactive), the GI50 [11] was 5.19 µM (inactive) and the GI50 [12] was 3.28 µM. For the same compound, the GI50 [13] was 2.27 µM (inactive), the GI50 [14] was 26.8 µM (inactive) and the GI50 [15] was 19.3 µM (inactive). For the same compound, the GI50 [16] was 34.8 µM (inactive), the GI50 [17] was > 100 µM (inactive) and the GI50 [18] was 3.61 µM (inactive). For the same compound, the GI50 [19] was 36.5 µM (inactive), the GI50 [20] was 6.62 µM (inactive) and the GI50 [21] was 8.57 µM (inactive). For the same compound, the GI50 [22] was 43.6 µM (inactive), the GI50 [23] was 5 µM (inactive) and the GI50 [24] was 6.38 µM (inactive). The GI50 [25] was 4.27 µM (inactive), the GI50 [26] was 2.41 µM (inactive) and the GI50 [27] was 93.1 µM (inactive). The GI50 [28] was 11.2 µM (inactive), the GI50 [29] was 9.31 µM (inactive) and the GI50 [30] was 9.23 µM (inactive). For the same compound, the GI50 [31] was 82.2 µM (inactive), the GI50 [32] was > 100 µM (inactive) and the GI50 [33] was 25.5 µM (inactive). For the same compound, the GI50 [34] was 8.39 µM (inactive), the GI50 [35] was 36.3 µM (inactive) and the GI50 [36] was 4.57 µM (inactive). For the same compound, the GI50 [37] was 9.31 µM (inactive), the GI50 [38] was 39.7 µM (inactive) and the GI50 [39] was 3.11 µM (inactive). For the same compound, the GI50 [40] was 3.85 µM (inactive), the GI50 [41] was 39.4 µM (inactive) and the GI50 [42] was 21.8 µM (inactive). For the same compound, the GI50 [43] was 23.9 µM (inactive), the GI50 [44] was 2.88 µM (inactive) and the GI50 [45] was 40.6 µM (inactive). For the same compound, the GI50 [46] was 6.08 µM (inactive), the GI50 [47] was 3.56 µM (inactive) and the GI50 [48] was 88.5 µM (inactive). The GI50 [49] was 19.9 µM (inactive), the GI50 [50] was 22.4 µM (inactive) and the GI50 [51] was 9.95 µM (inactive). For the same compound, the GI50 [52] was 52.6 µM (inactive) and the GI50 [53] was 19.9 µM (inactive).
With C/N=c1\ss/c(=N\C(=S)N(C)C)n1-c1ccccc1 the GI50 [1] was 38.3 µM (inactive), the GI50 [54] was 44.6 µM (inactive) and the GI50 [2] was > 100 µM (inactive). For the same compound, the GI50 [3] was > 100 µM (inactive), the GI50 [4] was > 100 µM (inactive) and the GI50 [5] was > 100 µM (inactive). The GI50 [6] was > 100 µM (inactive), the GI50 [7] was > 100 µM (inactive) and the GI50 [8] was > 67.8 µM (inactive). The GI50 [55] was > 100 µM (inactive), the GI50 [9] was > 100 µM (inactive) and the GI50 [10] was > 100 µM (inactive). For the same compound, the GI50 [11] was > 72.8 µM (inactive), the GI50 [12] was over 100 µM and the GI50 [13] was > 100 µM (inactive). The GI50 [56] was > 100 µM (inactive), the GI50 [14] was > 80.7 µM (inactive) and the GI50 [15] was 39.5 µM (inactive). The GI50 [16] was > 31.6 µM (inactive), the GI50 [17] was 97.7 µM (inactive) and the GI50 [18] was > 100 µM (inactive). For the same compound, the GI50 [19] was > 100 µM (inactive), the GI50 [20] was > 100 µM (inactive) and the GI50 [21] was > 100 µM (inactive). The GI50 [22] was > 100 µM (inactive), the GI50 [23] was > 100 µM (inactive) and the GI50 [24] was > 100 µM (inactive). The GI50 [25] was > 100 µM (inactive), the GI50 [26] was > 100 µM (inactive) and the GI50 [27] was > 100 µM (inactive). The GI50 [28] was > 68.1 µM (inactive), the GI50 [57] was > 100 µM (inactive) and the GI50 [29] was 9.14 µM (inactive). For the same compound, the GI50 [30] was > 100 µM (inactive), the GI50 [31] was > 100 µM (inactive) and the GI50 [32] was > 100 µM (inactive). For the same compound, the GI50 [33] was > 100 µM (inactive), the GI50 [34] was > 100 µM (inactive) and the GI50 [58] was > 48.2 µM (inactive). For the same compound, the GI50 [35] was 34 µM (inactive), the GI50 [36] was > 75.5 µM (inactive) and the GI50 [37] was 31 µM (inactive). For the same compound, the GI50 [38] was > 100 µM (inactive), the GI50 [39] was > 64 µM (inactive) and the GI50 [40] was > 20.7 µM (inactive). The GI50 [41] was > 100 µM (inactive), the GI50 [42] was > 100 µM (inactive) and the GI50 [43] was > 52.7 µM (inactive). The GI50 [44] was 17.3 µM (inactive), the GI50 [45] was 46 µM (inactive) and the GI50 [46] was > 100 µM (inactive). The GI50 [47] was > 100 µM (inactive), the GI50 [48] was > 100 µM (inactive) and the GI50 [49] was 67 µM (inactive). The GI50 [50] was > 100 µM (inactive), the GI50 [51] was > 22.9 µM (inactive) and the GI50 [52] was > 55.7 µM (inactive).
In the case of CCCCCC(=O)c1ccc2[nH]c3c(C)cc([N+](=O)[O-])c(C)c3c2c1, the GI50 [1] is reported as 36.1 µM (inactive), the GI50 [2] is reported as 49.4 µM (inactive) and the GI50 [3] is reported as > 100 µM (inactive). The GI50 [4] was > 100 µM (inactive), the GI50 [5] was 91.2 µM (inactive) and the GI50 [6] was 59.6 µM (inactive). The GI50 [8] was > 100 µM (inactive), the GI50 [55] was 27.9 µM (inactive) and the GI50 [9] was > 100 µM (inactive). For the same compound, the GI50 [10] was > 100 µM (inactive), the GI50 [11] was 90.8 µM (inactive) and the GI50 [12] was over 100 µM. For the same compound, the GI50 [13] was 98.2 µM (inactive), the GI50 [14] was > 100 µM (inactive) and the GI50 [16] was 75 µM (inactive). For the same compound, the GI50 [18] was 25.4 µM (inactive), the GI50 [20] was > 100 µM (inactive) and the GI50 [21] was > 100 µM (inactive). The GI50 [23] was 70 µM (inactive), the GI50 [24] was > 100 µM (inactive) and the GI50 [25] was > 100 µM (inactive). For the same compound, the GI50 [26] was > 100 µM (inactive), the GI50 [27] was > 100 µM (inactive) and the GI50 [28] was 95.3 µM (inactive). For the same compound, the GI50 [57] was 82 µM (inactive), the GI50 [29] was > 100 µM (inactive) and the GI50 [30] was 67.6 µM (inactive). The GI50 [31] was 89.3 µM (inactive), the GI50 [32] was > 100 µM (inactive) and the GI50 [33] was 75.5 µM (inactive). The GI50 [34] was > 100 µM (inactive), the GI50 [35] was > 100 µM (inactive) and the GI50 [36] was 94.6 µM (inactive). For the same compound, the GI50 [37] was 45.6 µM (inactive), the GI50 [38] was > 100 µM (inactive) and the GI50 [39] was > 100 µM (inactive). For the same compound, the GI50 [40] was > 100 µM (inactive), the GI50 [42] was > 100 µM (inactive) and the GI50 [43] was > 100 µM (inactive). The GI50 [44] was > 100 µM (inactive), the GI50 [45] was > 100 µM (inactive) and the GI50 [46] was 56.8 µM (inactive). For the same compound, the GI50 [47] was 80.2 µM (inactive), the GI50 [48] was 26.6 µM (inactive) and the GI50 [50] was > 100 µM (inactive). For the same compound, the GI50 [52] was > 100 µM (inactive) and the GI50 [53] was > 100 µM (inactive).
With CCc1ccc(NCc2cc(OC)c(OC)c(OC)c2)cc1 the GI50 [3] was 3.51 µM (inactive), the GI50 [59] was < 0.01 µM (active) and the GI50 [5] was 0.158 µM (active). The GI50 [7] was 0.592 µM (active), the GI50 [8] was 0.586 µM (active) and the GI50 [60] was 0.399 µM (active). For the same compound, the GI50 [9] was 4.95 µM (inactive), the GI50 [11] was 0.122 µM (active) and the GI50 [12] was 0.0847 µM. The GI50 [13] was 0.0603 µM (active), the GI50 [14] was 0.366 µM (active) and the GI50 [15] was 1.09 µM (active). For the same compound, the GI50 [16] was 0.105 µM (active), the GI50 [18] was 0.0728 µM (active) and the GI50 [19] was 0.388 µM (active). For the same compound, the GI50 [20] was 0.0537 µM (active), the GI50 [24] was 0.579 µM (active) and the GI50 [25] was 0.159 µM (active). The GI50 [26] was 0.256 µM (active), the GI50 [27] was 4.65 µM (inactive) and the GI50 [28] was 0.532 µM (active). The GI50 [29] was 0.109 µM (active), the GI50 [61] was < 0.0416 µM (active) and the GI50 [30] was 0.123 µM (active). The GI50 [31] was 26.7 µM (inactive), the GI50 [32] was 4.9 µM (inactive) and the GI50 [62] was 0.186 µM (active). For the same compound, the GI50 [34] was 0.303 µM (active), the GI50 [58] was 0.224 µM (active) and the GI50 [36] was 0.109 µM (active). For the same compound, the GI50 [43] was 0.902 µM (active), the GI50 [50] was 17.2 µM (inactive) and the GI50 [53] was 1.69 µM (inactive).

Source: ChEMBL document CHEMBL1201862, “PubChem BioAssay data set” (2004)
